# Data from patent US11033631B2, “Methods of treating CYP2D6 alternative metabolizers” (Nektar Therapeutics, priority 2008, dated 2021).
# Where a name gives a salt, the structure may show the parent alone.
# Target: T1, CYP2D6 (Homo sapiens, UniProt P10635)
# Assay: biochemical
# Conditions: not given
# T1 sequence (P10635 whole entry): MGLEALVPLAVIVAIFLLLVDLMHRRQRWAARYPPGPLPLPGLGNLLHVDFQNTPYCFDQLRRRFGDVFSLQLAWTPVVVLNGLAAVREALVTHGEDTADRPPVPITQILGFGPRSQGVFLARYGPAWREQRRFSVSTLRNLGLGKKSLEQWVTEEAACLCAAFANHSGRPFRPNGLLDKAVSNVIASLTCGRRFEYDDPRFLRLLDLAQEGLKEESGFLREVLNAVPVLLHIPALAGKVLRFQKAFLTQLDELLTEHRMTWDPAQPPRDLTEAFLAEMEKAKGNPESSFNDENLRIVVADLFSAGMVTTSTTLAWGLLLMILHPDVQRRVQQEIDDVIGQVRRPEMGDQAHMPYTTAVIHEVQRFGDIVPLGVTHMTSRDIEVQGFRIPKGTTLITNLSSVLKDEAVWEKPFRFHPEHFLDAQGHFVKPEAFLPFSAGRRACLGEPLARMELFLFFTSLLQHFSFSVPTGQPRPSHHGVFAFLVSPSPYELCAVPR
row,IC50 [µM],SMILES
1,19.5,N=C(N)N1CCc2ccccc2C1 [Debrisoquine sulfate]

# Target: T2, CYP3A4 (Homo sapiens, UniProt P08684)
# Assay: not given
# Conditions: microsomes
# T2 sequence (P08684 whole entry): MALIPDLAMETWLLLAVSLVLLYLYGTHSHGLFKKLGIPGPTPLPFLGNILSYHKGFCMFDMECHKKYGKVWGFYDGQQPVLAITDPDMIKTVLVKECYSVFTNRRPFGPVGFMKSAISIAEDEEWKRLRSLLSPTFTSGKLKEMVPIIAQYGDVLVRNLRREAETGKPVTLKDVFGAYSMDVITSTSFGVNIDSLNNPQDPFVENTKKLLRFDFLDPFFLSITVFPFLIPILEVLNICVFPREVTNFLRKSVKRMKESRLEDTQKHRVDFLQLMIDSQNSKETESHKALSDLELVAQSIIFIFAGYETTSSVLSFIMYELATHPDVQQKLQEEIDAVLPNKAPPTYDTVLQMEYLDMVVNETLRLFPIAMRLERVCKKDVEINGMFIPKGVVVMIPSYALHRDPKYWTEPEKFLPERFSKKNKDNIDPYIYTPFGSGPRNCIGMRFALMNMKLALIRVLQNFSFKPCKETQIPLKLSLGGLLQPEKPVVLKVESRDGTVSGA
row,SMILES,IC50 [µM]
1,"COCCOCCOCCOCCOCCOCCOCCN1CCN(C(c2ccccc2)c2ccc(Cl)cc2)CC1 (stereo not drawn) [PEG-5-HZ, mPEG5-hydroxyzine]",7.9
2,"CC(C)NCC(O)COc1cccc2ccccc12 (stereo not drawn) [Propranolol hydrochloride, reference compound]",> 25
3,COCCOCCOCCN(C)CCOC(c1ccccc1)c1ccccc1 [mPEG3-N-diphenhydramine],16.4
4,COCCOCCOCCNCCCN1c2ccccc2CCc2ccccc21 [mPEG3-NH-desipramine],17.9
5,COCCOCCOCCOCCN(C)CCOC(c1ccccc1)c1ccccc1 [mPEG4-N-diphenhydramine],13.1
6,COCCOCCOCCOCCOCCOCCOCCNCCCN1c2ccccc2CCc2ccccc21 [mPEG7-NH-desipramine],9.51

# Target: T1, CYP2D6
# Assay: not given
# Conditions: microsomes
row,SMILES,IC50 [µM]
1,"CC(C)NCC(O)COc1cccc2ccccc12 (stereo not drawn) [Propranolol hydrochloride, reference compound]",7.5
2,COCCOCCOCCN(C)CCOC(c1ccccc1)c1ccccc1 [mPEG3-N-diphenhydramine],2.6
3,COCCOCCOCCOCCN(C)CCOC(c1ccccc1)c1ccccc1 [mPEG4-N-diphenhydramine],9.2

# Same assay, conditions: read-out: CYP2D6 Inhibition of dextromethorphan O-demethylation IC50; human liver microsomes 0.1 mg/mL, test compound 0.1-25 μM, 5 minutes
row,SMILES,IC50 [µM]
1,"COCCOCCOCCOCCOCCN1CCN(C(c2ccccc2)c2ccc(Cl)cc2)CC1 (stereo not drawn) [PEG-3-HZ, mPEG3-hydroxyzine]",9.7
2,"COCCOCCOCCOCCOCCOCCOCCN1CCN(C(c2ccccc2)c2ccc(Cl)cc2)CC1 (stereo not drawn) [PEG-5-HZ, mPEG5-hydroxyzine]",11.5
3,COCCOCCOCCNCCCN1c2ccccc2CCc2ccccc21 [mPEG3-NH-desipramine],1.47
4,COCCOCCOCCOCCOCCOCCOCCNCCCN1c2ccccc2CCc2ccccc21 [mPEG7-NH-desipramine],> 25

# Target: T1, CYP2D6
# Assay: Microsomal inhibition study, inhibition of bufuralol metabolism (Example 1)
# Conditions: read-out: 2D6 Affinity (IC50), Table 2
row,SMILES,IC50 [µM]
1,"COCCOCCOCCOCCOCCN1CCN(C(c2ccccc2)c2ccc(Cl)cc2)CC1 (stereo not drawn) [PEG-3-HZ, mPEG3-hydroxyzine]",10.3
2,"COCCOCCOCCOCCOCCOCCOCCN1CCN(C(c2ccccc2)c2ccc(Cl)cc2)CC1 (stereo not drawn) [PEG-5-HZ, mPEG5-hydroxyzine]",11.7

# Target: T2, CYP3A4
# Assay: not given
# Conditions: microsomes
# Remark: another data set of the same source
row,SMILES,IC50 [µM]
1,"CC(C)NCC(O)COc1cccc2ccccc12 (stereo not drawn) [Propranolol hydrochloride, reference compound]",13.1

# Same assay, conditions: read-out: CYP3A4 Inhibition of testosterone 6β-hydroxylation IC50; human liver microsomes 0.1 mg/mL, test compound 0.1-25 μM, 5 minutes
row,SMILES,IC50 [µM]
1,"COCCOCCOCCOCCOCCOCCOCCN1CCN(C(c2ccccc2)c2ccc(Cl)cc2)CC1 (stereo not drawn) [PEG-5-HZ, mPEG5-hydroxyzine]",> 25
2,COCCOCCOCCN(C)CCOC(c1ccccc1)c1ccccc1 [mPEG3-N-diphenhydramine],> 25
3,COCCOCCOCCNCCCN1c2ccccc2CCc2ccccc21 [mPEG3-NH-desipramine],> 25
4,COCCOCCOCCOCCN(C)CCOC(c1ccccc1)c1ccccc1 [mPEG4-N-diphenhydramine],> 25
5,COCCOCCOCCOCCOCCOCCOCCNCCCN1c2ccccc2CCc2ccccc21 [mPEG7-NH-desipramine],> 25

# Target: T2, CYP3A4
# Assay: Microsomal inhibition study, inhibition of midazolam metabolism (Example 1)
# Conditions: read-out: 3A4 Affinity (IC50), Table 2
row,SMILES,IC50 [µM]
1,"COCCOCCOCCOCCOCCN1CCN(C(c2ccccc2)c2ccc(Cl)cc2)CC1 (stereo not drawn) [PEG-3-HZ, mPEG3-hydroxyzine]",17.8
2,"COCCOCCOCCOCCOCCOCCOCCN1CCN(C(c2ccccc2)c2ccc(Cl)cc2)CC1 (stereo not drawn) [PEG-5-HZ, mPEG5-hydroxyzine]",15.4
